The results in this text go back to patent publication EP2062893A1, “Fused imidazoles for cancer treatment” (Bayer Schering Pharma AG, priority 2007, dated 2009).

Bounds are passed on as bounds.

Common to all, as to type: cell-based
One test relates to OvCAR3 cells. Briefly: Cellular proliferation / Cytotoxicity assay (Alamar Blue / Resazurin cell viability). The note with it: Homo sapiens, OVCAR-3, 48h incubation, read-out: Anti-proliferative / Cytotoxic activity (OvCAR3 cells). As to the method:
Wells containing untreated control cells were filled with 200 µl DMEM (Dulbecco's Modified Eagle Medium) containing 0.5vol% v:v DMSO. The cells are then incubated with the substances for 48h at 37°C in a humidified atmosphere containing 5vol% CO2. To determine the viability of the cells, 20 µl of a Resazurin solution (90mg / I) are added. […] Viabilities are expressed as % values.
A general note: The colour change of resazurin is a common sign of viable cells or microbes.

A further test relates to phosphorylated GSK3. As to the kind of experiment: Cellular pGSK3 assay (phospho-GSK3 Ser9 sandwich ELISA). The following applies: Homo sapiens; MCF7 cells, 48h incubation, IC50 of pGSK3 inhibition. On the procedure:
In order to study the cellular activity of the compounds according to the present invention, an ELISA-based assay has been established for the phosphorylated protein glycogen synthetase kinase 3 (GSK3). The assay is based on a solid phase sandwich ELISA that detects endogenous levels of phosphorylated GSK3 using a phospho-GSK3 (Ser9) specific antibody (BioSource International, Inc.; Catalog #KHO0461). After incubation with cell lysates, the coated antibody captures the phosphorylated GSK3 protein. Following extensive washing, GSK3 polyclonal antibody is added to detect the captured phospho-GSK3 protein. Secondary antibody (anti-rabbit IgG-HRP) is then used to recognize the bound detection antibody. After the second incubation and washing to remove all the excess anti-rabbit IgG-HRP, a substrate solution is added, which is acted upon by the bound enzyme to produce color. The intensity of this colored product is directly proportional to the concentration of GSK-3β [pS9] present in the original specimen. MCF7 cells (ATCC HTB-22) were seeded into 96 well fate bottom plates at a density of 10000 cells/well. After 24 h 1 µl each of the compound dilutions (test compounds were dissolved as 10 mM solutions in dimethylsulfoxide (DMSO) and subsequently diluted) were added into each well of the 96 well plates and incubated for 48h at 37°C in a humidified athmosphere containing 5% CO2. Cells were harvested and lysed in cell extraction buffer (10 mM Tris, pH 7.4, 100 mM NaCl, 1 mM EDTA, 1 mM EGTA, 1 mM NaF, 20 mM Na4P2O7, 2 mM Na3VO4, 1% Triton X-100, 10vol% glycerol, 0.1vol% SDS, 0.5vol% deoxycholate, 1 mM phenylmethylsulfonylfluorid (PMSF)). The lysate were centrifuged for 10 min. at 4°C and the supernatant were transferred to a new tube. 50 µl of sample diluent (standard diluent buffer, Biosource) were added and 100 µl of cell lysate transferred into the tube and vortexed. 100 µl of each diluted cell lysate were added to the appropriate ELISA well plate and incubated for 3h at room temperature. The plates were washed 4 times with 1x wash buffer (Biosource). 50 µl of detection antibody (GSK3 (Ser9) detection antibody; BioSource) were added to each well and incubated for 30 min. at room temperature. The washing procedure was repeated between each step. 100µl of HRP-linked secondary antibody (anti-mouse IgG HRP-linked antibody) were added to each well and incubated for 30 min. at room temperature. 100µl of TMB substrate (0.05vol% 3,3',5,5' tetramethylbenzidine, 0.1vol% hydrogen peroxide, complex polypeptides in a buffered solution; Biosource) were added to each well and incubated for 30 min. at room temperature. Finally 100 µl of Stop solution (0.05vol% α and β unsaturated carbonyl compound) were added to each well and the plate were shaked gently for a few seconds. The absorbance was measured at λ = 450 nm (Wallac Victor2; Perkin Elmer, USA) within 30 min. after adding the stop solution. The analysis of the data was performed using a statistical program (Excel; Microsoft, USA) and the IC50 of pGSK3 inhibition was determined.
(ELISA stands for enzyme-linked immunosorbent assay.)

Test [1] has as its system phosphorylated Akt protein. As to the kind of experiment: Cellular PI3K / Akt pathway assay (phospho-Akt Ser473 sandwich ELISA). The following applies: Homo sapiens; MCF7 cells, ß-Heregulin (20ng/ml) stimulation, 48h incubation. As to the method:
In order to study the cellular activity of the compounds according to the present invention, an Enzyme Linked Immunosorbent Assay (ELISA)-based assay has been used specific phospho-AKT. The assay is based on a Sandwich ELISA kit (PathScan™ Phospho-Akt1 (Ser473); Cell Signaling, USA; #7160). The ELISA Kit detects endogenous levels of phosphorylated Akt protein. A phospho-Akt (Ser473) antibody (Cell Signaling, USA; #9271) has been coated onto the microwells. After incubation with cell lysates, the coated antibody captures the phosphorylated Akt protein. Following extensive washing, Akt1 monoclonal antibody (Cell Signaling, USA; #2967) is added to detect the captured phospho-Akt1 protein. HRP-linked anti-mouse antibody (HRP: horseradish peroxidase; Cell Signaling, USA; #7076) is then used to recognize the bound detection antibody. HRP substrate (= 3,3',5,5'-tetramethylbenzidine (TMB); Cell Signaling, USA; #7160) is added to develop colour. The magnitude of optical density for this developed color is proportional to the quantity of phosphorylated Akt protein. MCF7 cells (ATCC HTB-22) are seeded into 96 well fate bottom plates at a density of 10000 cells/well. 24 hours after seeding, the cells are serum starved using low-serum medium (IMEM media including 0,1% charcoal treated FCS (FCS: fetal calf serum)). […] To stimulate Akt phosphorylation, ß-Heregulin (20ng/ml ß-HRG) is added in parallel to the compounds. Wells containing unstimulated control cells (no ß-Heregulin stimulation) are incubated with or without the diluted compound. Wells containing untreated control cells (no compound) are filled with medium containing 0.5% v:v DMSO and are or are not stimulated with ß-Heregulin. Cells are harvested and lysed with brief sonification in 1x cell lysis buffer (20mM Tris (pH7.5), 150 mM NaCl, 1 mM ethylene diaminetetraacetate (EDTA), 1 mM ethylene glycolbis(2-aminoethyl)-N,N,N',N'-tetraacetic acid (EGTA), 1vol% Triton X-100, 2.5mM sodium pyrophosphate, 1 mM β-glycerolphosphate, 1 mM Na3VO4, 1µg/ml leupeptin). The lysate is centrifuged for 10 min. at 4°C and the supernatant is transferred to a new tube. 100 µl of sample diluent (0.1vol% Tween-20, 0.1vol% sodium azide in phosphate buffered saline (PBS)) are added to a microcentrifuge tube and 100 µl of cell lysate are transferred into the tube and vortexed. 100 µl of each diluted cell lysate are added to the appropriate ELISA well, and incubated overnight at 4°C. The plates are washed 4 times with 1x wash buffer (1vol% tween-20, 0.33vol% thymol, in PBS). Next 100 µl of detection antibody (Akt1 (2H10) monoclonal detection antibody; Cell Signaling, USA; #2967) are added to each well and incubation continued for 1h at 37°C. The washing procedure is repeated between each step. 100µl of secondary antibody (anti-mouse IgG HRP-linked antibody; Cell Signaling, USA; #7076) are added to each well and incubated for 30 min. at 37°C. Than, 100µl of TMB substrate (0.05% 3,3',5,5' tetramethylbenzidine, 0.1 % hydrogen peroxide, complex polypeptides in a buffered solution; Cell Signaling, USA; #7160) are added to each well and incubated for 30 min. at 25°C. Finally 100 µl of STOP solution (0.05vol% α and β unsaturated carbonyl compound) are added to each well and the plate are shaked gently. The absorbance is measured at λ =450 nm (Wallac Victor2; Perkin Elmer, USA) within 30 min. after adding the STOP solution. The analysis of the data is performed using a statistical program (Excel; Microsoft, USA). Preferred compounds show an inhibitory activity towards Akt phosphorylation below 10µM.

For `c1ccc(-c2c(-c3ccc(CN4CCC(c5n[nH]c(-c6ccccn6)n5)CC4)cc3)nc3ccccn23)cc1` [Example 2, 3-phenyl-2-(4-{[4-(5-pyridin-2-yl-1H-1,2,4-triazol-3-yl)piperidin-1-yl]methyl}phenyl)imidazo[1,2-a]pyridine], the IC50 was less than 10 µM in the test on OvCAR3 cells, 1000 to 10000 nM in the test with phosphorylated GSK3 and less than 1000 nM in test [1].
In the same order, the values of `c1ccc(-c2c(-c3ccc(CN4CCC(c5n[nH]c(-c6ccccn6)n5)CC4)cc3)nc3nccnn23)cc1` [Example 3, 7-phenyl-6-(4-{[4-(5-pyridin-2-yl-1H-1,2,4-triazol-3-yl)piperidin-1-yl]methyl}phenyl)imidazo[1,2-b][1,2,4]triazine] are less than 10 µM, less than 1000 nM and less than 1000 nM.
In the same order, the values of `Brc1ccc2nc(-c3ccc(CN4CCC(c5n[nH]c(-c6ccccn6)n5)CC4)cc3)c(-c3ccccc3)n2c1` [Example 6, 6-bromo-3-phenyl-2-(4-{[4-(5-pyridin-2-yl-1,2,4-triazol-3-yl)piperidin-1-yl]methyl}phenyl)imidazo[1,2-a]pyridine] are less than 10 µM, 1000 to 10000 nM and less than 1000 nM.
With `Clc1ccc2nc(-c3ccc(CN4CCC(c5nnc(-c6ccccn6)[nH]5)CC4)cc3)c(-c3ccccc3)n2c1` [Example 7, 6-chloro-3-phenyl-2-(4-{[4-(5-pyridin-2-yl-4H-1,2,4-triazol-3-yl)piperidin-1-yl]methyl}phenyl)imidazo[1,2-a]pyridine], the IC50 is less than 10 µM in the test on OvCAR3 cells, 1000 to 10000 nM in the test on phosphorylated GSK3 and less than 1000 nM in test [1].
`Cc1cccn2c(-c3ccccc3)c(-c3ccc(CN4CCC(c5n[nH]c(-c6ccccn6)n5)CC4)cc3)nc12` [Example 8, 8-methyl-3-phenyl-2-(4-{[4-(5-pyridin-2-yl-1,2,4-triazol-3-yl)piperidin-1-yl]methyl}phenyl)imidazo[1,2-a]pyridine]: the IC50 is less than 10 µM with OvCAR3 cells, 1000 to 10000 nM in the test with phosphorylated GSK3 and less than 1000 nM in test [1].
On to `Fc1ccc(-c2c(-c3ccc(CN4CCC(c5n[nH]c(-c6ccccn6)n5)CC4)cc3)nc3ccccn23)cc1` [Example 9, 3-(4-fluorophenyl)-2-(4-{[4-(5-pyridin-2-yl-1,2,4-triazol-3-yl)piperidin-1-yl]methyl}phenyl)imidazo[1,2-a]pyridine], for which the IC50 in the test with OvCAR3 cells is greater than 10 µM; in the test with phosphorylated GSK3, 1000 to 10000 nM; in test [1] it was 1000 to 10000 nM.
With `c1ccc(-c2c(-c3ccc(CN4CCC(c5n[nH]c(-c6ccccn6)n5)CC4)cc3)nc3sccn23)cc1` [Example 10, 5-phenyl-6-(4-{[4-(5-pyridin-2-yl-1,2,4-triazol-3-yl)piperidin-1-yl]methyl}phenyl)imidazo[2,1-b][1,3]thiazole], the IC50 with OvCAR3 cells was less than 10 µM; in the test on phosphorylated GSK3 it was less than 1000 nM; in test [1], less than 1000 nM.
For the compound `c1ccc(-c2c(-c3ccc(CN4CCC(c5n[nH]c(-c6ccccn6)n5)CC4)cc3)nc3scnn23)cc1` [Example 11, 5-phenyl-6-(4-{[4-(5-pyridin-2-yl-1,2,4-triazol-3-yl)piperidin-1-yl]methyl}phenyl)imidazo[2,1-b][1,3,4]thiadiazole], the IC50 with OvCAR3 cells was less than 10 µM; with phosphorylated GSK3 it was 1000 to 10000 nM; in test [1], less than 1000 nM.
With `Brc1cnc2nc(-c3ccc(CN4CCC(c5n[nH]c(-c6ccccn6)n5)CC4)cc3)c(-c3ccccc3)n2c1` [Example 12, 6-bromo-3-phenyl-2-(4-{[4-(5-pyridin-2-yl-1,2,4-triazol-3-yl)piperidin-1-yl]methyl}phenyl)imidazo[1,2-a]pyrimidine], the results for the IC50 (in the test with OvCAR3 cells; in the test with phosphorylated GSK3; in test [1]) were less than 10 µM, less than 1000 nM and less than 1000 nM, respectively.
On to `COc1cccn2c(-c3ccccc3)c(-c3ccc(CN4CCC(c5n[nH]c(-c6ccccn6)n5)CC4)cc3)nc12` [Example 13, 8-methoxy-3-phenyl-2-(4-{[4-(5-pyridin-2-yl-1,2,4-triazol-3-yl)piperidin-1-yl]methyl}phenyl)imidazo[1,2-a]pyridine], for which the values for the IC50 (with OvCAR3 cells; in the test with phosphorylated GSK3; in test [1]) were less than 10 µM, 1000 to 10000 nM and less than 1000 nM, respectively.
In the same order, the values of `Fc1cccc(-c2c(-c3ccc(CN4CCC(c5n[nH]c(-c6ccccn6)n5)CC4)cc3)nc3ccccn23)c1` [Example 14, 3-(3-fluorophenyl)-2-(4-{[4-(5-pyridin-2-yl-1,2,4-triazol-3-yl)piperidin-1-yl]methyl}phenyl)imidazo[1,2-a]pyridine] are less than 10 µM, 1000 to 10000 nM and less than 1000 nM.
Turning to `COc1ccc(-c2c(-c3ccc(CN4CCC(c5n[nH]c(-c6ccccn6)n5)CC4)cc3)nc3ccccn23)cc1` [Example 15, 3-(4-methoxyphenyl)-2-(4-{[4-(5-pyridin-2-yl-1,2,4-triazol-3-yl)piperidin-1-yl]methyl}phenyl)imidazo[1,2-a]pyridine], the IC50 with OvCAR3 cells is greater than 10 µM; in the test with phosphorylated GSK3, 1000 to 10000 nM; in test [1], greater than 10000 nM.
